Test results from article PMC6843786, “Temporin-SHa and Its Analogs as Potential Candidates for the Treatment of Helicobacter pylori” (Biomolecules, 2019).
Like-named read-outs stand apart in the source and are kept apart here. Non-standard residues stand in square brackets, D forms with d. Residues, ends and D or L forms follow the SMILES beside them.

Assays:
[1] = tested on: H. pylori (ATCC 43504)
Text: (§1) H. pylori used in this study were either the reference strain obtained from the American Type Culture Collection (ATCC 43504) or clinical strains received frozen from our collaborator Josette Raymond from Hospital Cochin, Paris. Strains were obtained from patients who underwent a gastroendoscopy performed for various gastro-intestinal disorders according to the recommendations of Haute Autorité de Santé (HAS). During the endoscopy, biopsy samples were taken from antrum and corpus. Samples were then crushed, and the material was used for bacterial culture and molecular methods. An antibiogram was performed and strains were then frozen at -80 °C in a broth with 10% glycerol. Bacteria were cultured as previously described. Briefly, H. pylori (ATCC 43504) was cultured in brain heart infusion (BHI) and incubated at 37 °C for 16 h in microaerophilic condition in BD GasPak EZ using BD GasPak EZ CampyPak container system sachets (BD Biosciences, Le Pont-de-Claix, France). For clinical strains, a sample from the frozen bacteria was streaked on Blood Agar (Base) (Sigma-Aldrich, Illkirch-Graffenstaden, France) supplemented with 5% horse defibrinated blood (Fisher Scientific, Les Ulis, France) and 2% isovitale-X (Fisher Scientific, Illkirch-Graffenstaden, France). The petri dishes were then incubated at 37 °C for 4–7 days in microaerophilic condition. Then, a colony is transferred to 3 mL Mueller Hinton (MH) broth supplemented with 10% fetal bovine serum (FBS) and 2% isovitale-X. The cultures were then incubated for 4–7 days until the bacteria grow before further experiments.
(§2) Briefly, after the growth of H. pylori in liquid culture the optical density (OD) of the bacterial suspensions were read at 600 nm and adjusted to one. Stock solutions of the peptides at 1 mM were prepared in sterile water. Bacteria were diluted in medium to reach bacterial density around 10^5 bacteria/mL. One-hundred microliters per well of bacterial suspension were then added into sterile polypropylene 96-well microplates (Greiner BioOne, Paris, France) and exposed to increasing concentrations of peptides (from zero to 100 µM, 1:2 serial dilution). […] Plates were incubated at 37 °C for 24 h for H. pylori (ATCC 43504) and for 4–7 days for the clinical strains. H. pylori was tested in microaerophilic conditions generated using micro-anaerobic BD GasPak system. At the end of the incubation, OD600nm was measured using microplate reader (Synergy Mx, Biotek, Colmar, France). The MIC was defined as the lowest concentration of drug that inhibited visible growth of the organism. Experiments were conducted in independent triplicate (n = 3).

[2] = tested on: clinical strains of H. pylori; conditions: for MIC: MH + 10% FBS + 2% isovitale-X
Text: as §1, §2

[3] = tested on: total lipids extracted from H. pylori (ATCC 43504); test: Lipid insertion assay (lipid monolayer, critical pressure of insertion); set-up: species or system biophysical; conditions: peptide 1 µM, PBS pH 7.4, from the line fits of Figure 4
Protocol: Peptide-lipid interaction was measured using reconstituted lipid monolayer at the air-water interface as previously described. Total lipids were extracted from overnight cultures of H. pylori (ATCC 43504) using Folch extraction procedure as previously described. Extracted total lipids were dried, resolubilized in chloroform:methanol (2:1, v/v) and stored at -20 °C under nitrogen. For peptide-lipid interaction assay, total lipid extract was spread using a 50 μL Hamilton's syringe at the surface of 800 μL of sterile PBS creating a lipid monolayer at the air-water interface. Lipids were added until the surface pressure reached the desired value. […] The variation of the surface pressure caused by peptide injection was then continuously monitored using a fully automated microtensiometer (μTROUGH SX, Kibron Inc., Helsinki, Finland) until reaching equilibrium (maximal surface pressure increase being usually obtained after 15-25 min). […] Variation of surface pressure was plotted as a function of initial surface pressure and the critical pressure of insertion of each peptide into H. pylori lipids was calculated as the theoretical value of initial pressure of lipid monolayer not permissive to peptide insertion, i.e., giving a variation of pressure equal to 0 mN/m.

[4] = tested on: N87 cells; test: In vitro toxicity assay using human gastric cells (resazurin); type: cell-based
Protocol: [26] Human gastric cells N87 (ATCC CRL-5822) were cultured in RPMI-1640 medium supplemented with 10% fetal calf serum (FCS), 1% L-glutamine and 1% antibiotics (all from Invitrogen, Carlsbad, CA, USA) and were routinely seeded onto 25 cm^2 flasks maintained in a 5% CO2 incubator at 37 °C. For the toxicity assay, cells grown on 25 cm^2 flasks were detached using trypsin–EDTA solution (from Thermofisher), counted using Mallasez counting chamber and seeded into 96-well cell culture plates (Greiner Bio-one) at approximately 10^4 cells per well. The cells were left to grow for 48–72 h at 37 °C in a 5% CO2 incubator until they reached confluence. Plates were then aspirated and increasing concentrations of peptides were added to the cells for 48 h at 37 °C in a 5% CO2 incubator, volume of water corresponding to the volume of peptides being used as negative control. At the end of the incubation, wells were aspirated, and cell viability was evaluated using resazurin-based in vitro toxicity assay kit (Sigma-Aldrich) following manufacturer’s instructions. Briefly, resazurin stock solution was diluted 1:10 in sterile PBS containing calcium and magnesium (PBS^++, pH 7.4) and empty wells were filled with 100 µL of the diluted solution. After 4 h incubation at 37 °C, fluorescence intensity was measured using microplate reader (Synergy Mx, Biotek) with an excitation wavelength of 530 nm and an emission wavelength of 590 nm. The fluorescence values were normalized by the controls and expressed as percent viability.

Q: What does the source list for CC[C@H](C)[C@H](NC(=O)CNC(=O)[C@H](CO)NC(=O)[C@H](CC(C)C)NC(=O)[C@@H](N)Cc1ccccc1)C(=O)N[C@H](C(=O)NCC(=O)N[C@@H](CCSC)C(=O)N[C@@H](CC(C)C)C(=O)N[C@H](C)C(=O)N[C@@H](CCCCN)C(=O)N[C@@H](CC(C)C)C(=O)N[C@@H](Cc1ccccc1)C(N)=O)C(C)C [NST1, H-Phe^1-Leu^2-Ser^3-Gly^4-Ile^5-Val^6-Gly^7-Met^8-Leu^9-D-Ala^10-Lys^11-Leu^12-Phe^13-NH2] (H-FLSGIVGML[dA]KLF-NH2)?
A: MIC on H. pylori (ATCC 43504) ([1]; MH medium, 24 h, microaerophilic): 1.5 µM; MIC on H. pylori (ATCC 43504) in MH supplemented with 10% FBS ([1]; MH supplemented with 10% FBS): 6.25 µM; MIC values against resistant clinical strains (span over all strains) ([2]; all resistant clinical strains, MH + 10% FBS): 6.25 to 12.5 µM; MIC ([2]; clinical strain BM18, resistance Clari/Metro): 12.5 µM; MIC ([2]; clinical strain EM68, resistance Clari/Metro): 12.5 µM; MIC ([2]; clinical strain LN18, resistance Clari): 6.25 µM; MIC ([2]; clinical strain MF76, resistance Clari/Metro): 12.5 µM; MIC ([2]; clinical strain MP78, resistance Clari/Metro): 12.5 µM; MIC ([2]; clinical strain MS67, resistance Clari/Metro): 12.5 µM; MIC ([2]; clinical strain NM44, resistance Clari/Metro): 6.25 µM; critical pressure of insertion (CPI) [3]: 38.65 mN/m; IC50 ([4]; 48 h incubation, resazurin cell viability, read-out: IC50 on N87 Cells): 90.4 ± 10.4 µM; increase in toxicity to human gastric cells compared to temporin-SHa ([4]; from IC50 on N87 cells): ~17 fold
